From BindingDB's records for doi:10.1046/j.1471-4159.2000.740478.x (Janssen Research Foundation, 2000) come the findings set out here.

SMILES strings stand for the structures. Several values for one entry are separate records, joined by “and”; a condition that tells them apart may be missing. Equal entries are not always repeated.

The target in this assay is 5-hydroxytryptamine receptor 4 (Homo sapiens, UniProt Q13639).
Sequence of 5-hydroxytryptamine receptor 4 (Q13639 whole entry): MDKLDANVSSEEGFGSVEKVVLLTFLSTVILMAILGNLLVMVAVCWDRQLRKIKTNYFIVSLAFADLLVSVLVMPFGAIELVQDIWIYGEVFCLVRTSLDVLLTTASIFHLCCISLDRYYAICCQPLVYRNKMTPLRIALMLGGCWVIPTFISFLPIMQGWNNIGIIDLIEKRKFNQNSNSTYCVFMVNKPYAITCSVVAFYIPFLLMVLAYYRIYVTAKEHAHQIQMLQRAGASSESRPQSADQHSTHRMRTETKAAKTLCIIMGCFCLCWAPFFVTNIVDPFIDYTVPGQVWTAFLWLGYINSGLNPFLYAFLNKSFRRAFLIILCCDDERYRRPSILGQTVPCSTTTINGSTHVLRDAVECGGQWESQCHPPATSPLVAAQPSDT

By Ki is commonly meant the dissociation constant of the complex between target and ligand, obtained from inhibition or displacement. Lower therefore signals higher affinity. As to `Cn1cc(C(=O)OCC2CCN(CCNS(C)(=O)=O)CC2)c2ccccc21` [GR 113808], the Ki is 0.31 nM and 0.5 nM.
For `CCCCN1CCC(COC(=O)c2cc(Cl)c(N)c3c2OCCO3)CC1` [CAS_121881], the inhibitory constant (Ki) was 0.06 nM and 0.03 nM.
`COc1ccc2[nH]cc(C=NN=C(N)NCCCCO)c2c1` [SDZ-HTF-919]: the Ki is 15.8 nM and 10 nM and 25.1 nM.
In the case of `CCOc1cc(N)c(Cl)cc1C(=O)NCC1CN(Cc2ccc(F)cc2)CCO1` (stereo not given) [SMR000469200], the Ki is 200 nM and 631 nM and 126 nM.
Consider `COc1ccc2[nH]cc(CCN)c2c1` [tryptamine, 5-Methoxy], for which the Ki worked out at 794 nM.
